Assay [1] deals with L. lactis strain CS4616m. Put plainly: Inhibition of growth of CS4616m culture by metal ions or diacetyl. The class given is cell-based, Lactococcus lactis subsp. cremoris. The method, then:
FIG. 5. Inhibitory effect of diacetyl on growth of L. lactis CS4616m. (A) Graphical presentation of cell growth of L. Lactis strain CS4616m, as measured by cell density (OD600 nm), in the presence of diacetyl (0-10 mM), which was added when the culture reached a cell density (OD600 nm) of 0.6. (B) Graphical presentation of cell growth of L. Lactis strain CS4616m, as measured by cell density (OD600 nm), and substrate/product profile in the presence of 10 mM Fe^3+ (added in the beginning of growth phase).
The observed high yields of diacetyl by cells of the L. lactis strain CS4616m are achieved by the addition of metal ions to the cells after they have reached the desired cell biomass. […] The final biomass of a culture grown in the presence of 10 mM Fe^3+ was only 3.3 (OD600 nm) (FIG. 5B) compared to 8.5 (OD600 nm) in the absence of a Fe^3+ supplement (FIG. 5A). […] In summary, for optimal diacetyl production, L. lactis strain CS4616m should be cultivated under aerobic conditions in the presence of a carbon source, e.g. glucose, in the presence of hemin until a sufficient biomass has been reached, followed by the addition of metal ions, preferably Fe^3+ or Cu^2+), and maintaining the aerobic conditions, in order for the accumulated acetolactate to be converted into diacetyl with high yield. The observed increase in diacetyl production by cells of the L. lactis strain CS4616m in response to Fe^3+, Fe^2+ and Cu^2+ is consistent with the finding that these metal ions serve as accelerators of the non-enzymatic oxidative decarboxylation flux from acetolactate to diacetyl. Optionally, once a sufficient biomass of the genetically modified Lactococcus lactis has been obtained following cultivation in the presence of a source of protoporphyrin IX or iron-containing porphyrin (e.g. hemin), the conversion of accumulated acetolactate can be accelerated by elevating the temperature of the culture or culture medium, for example to 60-65 degrees centigrade.

In assay [2] the test system is L. lactis strain CS4616m. Nature of the assay: Metal ion enhancement of diacetyl production from acetolactate in stationary-phase CS4616m culture. Set-up: species or system Lactococcus lactis subsp. cremoris. The method, then:
Graphical presentation of diacetyl formation from acetolactate as a function of time (hr) when L. lactis strain CS4616m is cultured in the presence of increasing levels of either Fe^3+ (B); Fe^2+ (C); and Cu^2+ (D). The time point for adding the metal catalysts during the cultivation of L. Lactis strain CS4616m was at 9.8 h, which is indicated by the straight line in (A). Experiments were conducted in duplicate and error bars indicate standard deviations.
Glucose, lactate, and ethanol were detected and quantitated using the Ultimate 3000 high-pressure liquid chromatography system (Dionex, Sunnyvale, USA) equipped with a Aminex HPX-87H column (Bio-Rad, Hercules, USA) and a Shodex RI-101 detector (Showa Denko K.K., Tokyo, Japan). Pyruvate was detected and quantitated using the DAD-3000 diode array detector (Dionex, Sunnyvale, USA). The column oven temperature was set at 60° C. with a mobile phase of 5 mM H2SO4, and the flow rate was 0.5 ml/min. Acetoin and α-acetolactate were measured colorimetrically based on Westerfeld et al. (1945). Diacetyl concentration was determined as described by Benson et al (1996).
When the cells entered the stationary phase, different concentrations of these metal catalysts were added to the cultivation medium. […] The yield and productivity for diacetyl production was as high as 0.87 mol mol^−1 glucose and 0.58 g/L·h based on 4 h data.

In assay [3] the test system is L. lactis strain CS4616m. Put plainly: Measurement of intracellular NADH and NAD+ (NAD+/NADH-Glo Assay). The assay is classed as cell-based, Lactococcus lactis subsp. cremoris. The method, then: L. lactis cell culture harvested in the mid-exponential growth phase (OD600 nm=0.6) was frozen in liquid nitrogen and stored at −20° C. Extraction and quantification of NADH and NAD^+ were performed using the kit NAD^+/NADH-Glo™ Assay (Promega) according to the instructions. Intracellular NADH and NAD^+ concentrations were estimated by assuming that 1 g (dry weight) of cells corresponded to 1.67 ml of intracellular volume and the cell density of 1 OD600 nm corresponds to 0.35 g/I dry cell mass.
In the L. lactis respiration chain (FIG. 2A), electrons are transferred from NADH dehydrogenase (NoxAB), menaquinone to Cyt bd oxidase in the presence of hemin. The observed growth and NADH/NAD+ ratio of genetically engineered strain CS4616m induced by hemin is consistent with the theory that NADH generated by the glycolysis pathway can be replenished through respiration and that suitable hemin activators can be used to fine-tune respiration and restore cell growth in this strain.

For assay [4], the system named is L. lactis strain CS4616m. Put plainly: Respiration-dependent aerobic growth of L. lactis strain CS4616m at different hemin concentrations. The assay is classed as cell-based, Lactococcus lactis subsp. cremoris. As to the method: L. lactis were grown aerobically at 30° C. in rich M17 broth (Terzaghi et al., 1975) supplemented with 2% (w/v) glucose and different concentrations of hemin in shaken 250 ml conical flasks. When required, antibiotics were added in the following concentrations: erythromycin: 200 μg/ml for E. coli and 5 μg/ml for L. lactis, tetracycline: 8 μg/ml for E. coli and 5 μg/ml for L. lactis, chloramphenicol: 20 μg/ml for E. coli and 5 μg/ml for L. lactis.
However, growth of the L. lactis strain was restored under aerobic conditions when hemin was present (FIG. 2B). The specific growth rate and final biomass density (OD600 nm) of the L. lactis strain increased in response to hemin concentrations of above 0.2 μg/ml, where a growth rate of 0.8 h^−1 and cell density of OD600 nm 8.5 was measured using a growth medium comprising 2% glucose, hemin levels were 1 μg/ml or above.

Where [5] appears, read: 10 or 20 mM, present in growth medium from the beginning of the growth phase.
[6] abbreviates: aerobic, growth medium 2% glucose, hemin 1 μg/ml or above.

Take `[Fe+3]` [Fe^3+]: the final biomass in the assay with L. lactis strain CS4616m [1] (10 mM Fe^3+ from beginning of growth, 8.5 without Fe^3+ supplement) is listed as 3.3 OD600 nm. Moreover, the cell growth result in the assay on L. lactis strain CS4616m [1] (setting [5]) is reported as “inhibited growth”. For the same compound, the diacetyl concentration in the assay on L. lactis strain CS4616m [2] (20 mM Fe^2+ added at stationary phase, after 4 h) is listed as 78 mM; in the assay on L. lactis strain CS4616m [2] (30 mM Fe^3+ added at stationary phase, after 2 h, 108 mM glucose), 85 mM; in the assay with L. lactis strain CS4616m [2] (30 mM Fe^3+ added at stationary phase, after 4 h, 108 mM glucose), 95 mM. Moreover, the “productivity for diacetyl production” value in the assay on L. lactis strain CS4616m [2] (30 mM Fe^3+, based on 4 h data) was found to be 0.58 g/L·h. Besides, in the assay on L. lactis strain CS4616m [2] (30 mM Fe^3+, based on 4 h data), the “yield for diacetyl production” value came to 0.87 mol mol^−1 glucose.

On to `[Cu+2]` [Cu^2+], for which the cell growth result is given as “inhibited growth” in the assay with L. lactis strain CS4616m [1] (setting [5]) and “totally abolished cell growth” in the assay on L. lactis strain CS4616m [1] (metal ion added during the growth phase). Besides, the diacetyl concentration in the assay on L. lactis strain CS4616m [2] (30 mM Cu^2+ added at stationary phase, after 1 h) stood at 78 mM. Besides, the “productivity for diacetyl production” value in the assay on L. lactis strain CS4616m [2] (30 mM Cu^2+, after 1 h) came out at 0.619 g/L·h.

Consider hemin, for which, in the assay with L. lactis strain CS4616m [3] (0.3 μg/ml hemin), the “NADH/NAD+ ratio” value was 0.07 and the “intracellular NAD+ concentration” value is reported as 0.25 mM. For the same compound, in the assay with L. lactis strain CS4616m [3] (1 μg/ml hemin), the “NADH/NAD+ ratio” value turned out to be 0.03 and the “intracellular NAD+ concentration” value is 0.47 mM. In the assay with L. lactis strain CS4616m [4] (setting [6]), the cell density turned out to be 8.5 OD600 nm and the growth rate was determined as 0.8 h⁻¹. Moreover, the “effect on cell growth” value with L. lactis strain CS4616m [4] (elevated hemin, circa 10 μg/ml or above (data not shown)) is “significant negative effect on cell growth”. In addition, in the assay with L. lactis strain CS4616m [4] (hemin above 1 μg/ml (e.g. 5 μg/ml)), the “final cell biomass and NADH/NAD+ ratio” value was “did not further increase”. Also, the “growth of the strain under aerobic conditions” value in the assay on L. lactis strain CS4616m [4] (hemin present) is “restored”.

As for `CC(=O)C(C)=O` [diacetyl], the cell growth result with L. lactis strain CS4616m [1] (diacetyl (0-10 mM) added at OD600 nm of 0.6) was “inhibit cell growth”.
